Results as given in patent publication US20140094424A1, “MICROBICIDAL COMPOSITIONS AND METHODS OF PRODUCTION USE THEREOF” (priority 2011, published 2014).

Assays:
Gram positive rods (S) = assay: MBC (minimum bactericidal concentration) test in Wash NEXT reagent; assay type: cell-based
[1] = system: Pseudomonas fluorescens (D); assay: as above; assay type: cell-based

gentamicin
MBC test growth score (Gram positive rods (S); 10% preservative, 8 hour): − | MBC test growth score (Gram positive rods (S); 10% preservative, 24 hour): − | MBC test growth score (Gram positive rods (S); 10% preservative, 48 hour): − | MBC test growth score (Gram positive rods (S); 10% preservative, 72 hour): − | MBC test growth score (Gram positive rods (S); 20% preservative, 8 hour): − | MBC test growth score (Gram positive rods (S); 20% preservative, 24 hour): − | MBC test growth score (Gram positive rods (S); 20% preservative, 48 hour): − | MBC test growth score (Gram positive rods (S); 20% preservative, 72 hour): − | MBC test growth score (Gram positive rods (S); 30% preservative, 8 hour): − | MBC test growth score (Gram positive rods (S); 30% preservative, 24 hour): − | MBC test growth score (Gram positive rods (S); 30% preservative, 48 hour): − | MBC test growth score (Gram positive rods (S); 30% preservative, 72 hour): − | MBC test growth score (Gram positive rods (S); 40% preservative, 8 hour): − | MBC test growth score (Gram positive rods (S); 40% preservative, 24 hour): − | MBC test growth score (Gram positive rods (S); 40% preservative, 48 hour): − | MBC test growth score (Gram positive rods (S); 40% preservative, 72 hour): − | MBC test growth score (Gram positive rods (S); 50% preservative, 8 hour): − | MBC test growth score (Gram positive rods (S); 50% preservative, 24 hour): − | MBC test growth score (Gram positive rods (S); 50% preservative, 48 hour): − | MBC test growth score (Gram positive rods (S); 50% preservative, 72 hour): − | MBC test growth score (Gram positive rods (S); 60% preservative, 8 hour): − | MBC test growth score (Gram positive rods (S); 60% preservative, 24 hour): − | MBC test growth score (Gram positive rods (S); 60% preservative, 48 hour): − | MBC test growth score (Gram positive rods (S); 60% preservative, 72 hour): − | MBC test growth score (Gram positive rods (S); 70% preservative, 8 hour): − | MBC test growth score (Gram positive rods (S); 70% preservative, 24 hour): − | MBC test growth score (Gram positive rods (S); 70% preservative, 48 hour): − | MBC test growth score (Gram positive rods (S); 70% preservative, 72 hour): − | MBC test growth score (Gram positive rods (S); 80% preservative, 8 hour): − | MBC test growth score (Gram positive rods (S); 80% preservative, 24 hour): − | MBC test growth score (Gram positive rods (S); 80% preservative, 48 hour): − | MBC test growth score (Gram positive rods (S); 80% preservative, 72 hour): − | MBC test growth score (Gram positive rods (S); 90% preservative, 8 hour): − | MBC test growth score (Gram positive rods (S); 90% preservative, 24 hour): − | MBC test growth score (Gram positive rods (S); 90% preservative, 48 hour): − | MBC test growth score (Gram positive rods (S); 90% preservative, 72 hour): − | MBC test growth score (Gram positive rods (S); 100% preservative, 8 hour): − | MBC test growth score (Gram positive rods (S); 100% preservative, 24 hour): − | MBC test growth score (Gram positive rods (S); 100% preservative, 48 hour): − | MBC test growth score (Gram positive rods (S); 100% preservative, 72 hour): − | MBC test growth score ([1]; 10% preservative, 8 hour): + | MBC test growth score ([1]; 10% preservative, 24 hour): + | MBC test growth score ([1]; 10% preservative, 48 hour): +/− | MBC test growth score ([1]; 10% preservative, 72 hour): 15 | MBC test growth score ([1]; 20% preservative, 8 hour): + | MBC test growth score ([1]; 20% preservative, 24 hour): + | MBC test growth score ([1]; 20% preservative, 48 hour): +/− | MBC test growth score ([1]; 20% preservative, 72 hour): 12 | MBC test growth score ([1]; 30% preservative, 8 hour): + | MBC test growth score ([1]; 30% preservative, 24 hour): +/− | MBC test growth score ([1]; 30% preservative, 48 hour): +/− | MBC test growth score ([1]; 30% preservative, 72 hour): − | MBC test growth score ([1]; 40% preservative, 8 hour): + | MBC test growth score ([1]; 40% preservative, 24 hour): +/− | MBC test growth score ([1]; 40% preservative, 48 hour): +/− | MBC test growth score ([1]; 40% preservative, 72 hour): − | MBC test growth score ([1]; 50% preservative, 8 hour): +/− | MBC test growth score ([1]; 50% preservative, 24 hour): 14 | MBC test growth score ([1]; 50% preservative, 48 hour): +/− | MBC test growth score ([1]; 50% preservative, 72 hour): − | MBC test growth score ([1]; 60% preservative, 8 hour): +/− | MBC test growth score ([1]; 60% preservative, 24 hour): 13 | MBC test growth score ([1]; 60% preservative, 48 hour): +/− | MBC test growth score ([1]; 60% preservative, 72 hour): − | MBC test growth score ([1]; 70% preservative, 8 hour): +/− | MBC test growth score ([1]; 70% preservative, 24 hour): 5 | MBC test growth score ([1]; 70% preservative, 48 hour): − | MBC test growth score ([1]; 70% preservative, 72 hour): − | MBC test growth score ([1]; 80% preservative, 8 hour): +/− | MBC test growth score ([1]; 80% preservative, 24 hour): 5 | MBC test growth score ([1]; 80% preservative, 48 hour): − | MBC test growth score ([1]; 80% preservative, 72 hour): − | MBC test growth score ([1]; 90% preservative, 8 hour): +/− | MBC test growth score ([1]; 90% preservative, 24 hour): 1 | MBC test growth score ([1]; 90% preservative, 48 hour): − | MBC test growth score ([1]; 90% preservative, 72 hour): − | MBC test growth score ([1]; 100% preservative, 8 hour): +/− | MBC test growth score ([1]; 100% preservative, 24 hour): − | MBC test growth score ([1]; 100% preservative, 48 hour): − | MBC test growth score ([1]; 100% preservative, 72 hour): −
